Assay results: the NIST ThermoML archive (doi:10.1021/je401020e)
Numbers after ± are expanded uncertainties.

Columns and labels:
[1] = Liquid; for mass density: 298.15 K, 101.33 kPa, Vibrating tube method; for vapor or sublimation pressure: Closed cell (Static) method
[2] = refractive index (Na D-line) (dimensionless); settings: 298.15 K; 101.33 kPa; Liquid; Standard Abbe refractometry

OCCOCCO [diethylene glycol]
mass density [1]: 1112.56 ± 0.12 kg/m3
vapor or sublimation pressure ([1]; 445.07 K): 10 ± 0.82 kPa
vapor or sublimation pressure ([1]; 445.47 K): 10 ± 0.81 kPa
vapor or sublimation pressure ([1]; 464.36 K): 20 ± 1.1 kPa
vapor or sublimation pressure ([1]; 485.33 K): 40 ± 1.8 kPa
refractive index [2]: 1.4452 ± 0.0003

OCCOCCOCCO [triethylene glycol]
mass density [1]: 1120.7 ± 0.1 kg/m3
vapor or sublimation pressure ([1]; 480.39 K): 10 ± 0.88 kPa
vapor or sublimation pressure ([1]; 500.97 K): 20 ± 1.2 kPa
vapor or sublimation pressure ([1]; 524.64 K): 40 ± 2 kPa
refractive index [2]: 1.4457 ± 0.0003

OCCCCO [1,4-butanediol]
mass density [1]: 1013.04 ± 0.05 kg/m3
vapor or sublimation pressure ([1]; 437.48 K): 10 ± 0.73 kPa
vapor or sublimation pressure ([1]; 454.63 K): 20 ± 0.99 kPa
vapor or sublimation pressure ([1]; 473.22 K): 40 ± 1.6 kPa
refractive index [2]: 1.4449 ± 0.0003

OCCO [1,2-ethanediol]
mass density [1]: 1107.92 ± 0.09 kg/m3
vapor or sublimation pressure ([1]; 405.97 K): 10 ± 0.73 kPa
vapor or sublimation pressure ([1]; 406.07 K): 10 ± 0.73 kPa
vapor or sublimation pressure ([1]; 423.18 K): 20 ± 0.99 kPa
vapor or sublimation pressure ([1]; 441.92 K): 40 ± 1.6 kPa
refractive index [2]: 1.4312 ± 0.0003
